Test results published in ChEMBL document CHEMBL1201862, “PubChem BioAssay data set” (2004).
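Interpolation was linear, between the two tested concentrations surrounding the appropriate level; five concentrations were tested over 48 hours in 96-well plates. GI50 marks 50% less growth.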 Calls of active or inactive are those of the source. No stated cut-off is given here; in the data, active = GI50 up to about 1.1 µM and inactive = higher.

Experiments:
Assay in all cases: NCI-60 cell line screen, 48 h
MCF7 = test system: MCF7
LOX IMVI = test system: LOX IMVI
SK-MEL-28 = test system: SK-MEL-28
COLO 205 = test system: COLO 205
Hs-578T = test system: Hs-578T
NCI-H226 = test system: NCI-H226
TK-10 = test system: TK-10
OVCAR-4 = test system: OVCAR-4
SNB-19 = test system: SNB-19
SF-539 = test system: SF-539
K562 = test system: K562
U-251 = test system: U-251
OVCAR-8 = test system: OVCAR-8
NCI-H522 = test system: NCI-H522
OVCAR-3 = test system: OVCAR-3
ACHN = test system: ACHN
CCRF-CEM = test system: CCRF-CEM
NCI/ADR-RES = test system: NCI/ADR-RES
A498 = test system: A498
BT-549 = test system: BT-549

Measured: GI50

Cn1c(=O)c2nc(CCCCc3nc4c(=O)n(C)c(=S)n(C)c4[nH]3)[nH]c2n(C)c1=S
inactive: MCF7 > 100 µM | LOX IMVI > 100 µM | SK-MEL-28 > 100 µM | COLO 205 > 100 µM | Hs-578T > 100 µM | NCI-H226 > 100 µM | TK-10 > 100 µM | OVCAR-4 > 100 µM | SNB-19 76.6 µM | SF-539 40.8 µM | K562 > 100 µM | U-251 57.4 µM | OVCAR-8 > 100 µM | NCI-H522 > 100 µM | OVCAR-3 > 100 µM | ACHN > 100 µM | CCRF-CEM > 100 µM | NCI/ADR-RES > 100 µM | A498 > 100 µM | BT-549 > 100 µM

COC(=O)CN1Cc2cc(C)cc(c2O)CN(CC(=O)OC)Cc2cc(C)cc(c2O)CN(CC(=O)OC)Cc2cc(C)cc(c2O)C1
inactive: MCF7 > 42 µM | LOX IMVI > 65.8 µM | SK-MEL-28 99.8 µM | COLO 205 > 54.3 µM | Hs-578T > 100 µM | NCI-H226 > 37.4 µM | TK-10 > 79.8 µM | OVCAR-4 > 100 µM | SNB-19 > 100 µM | SF-539 > 80.2 µM | K562 > 100 µM | U-251 > 45.8 µM | OVCAR-8 > 100 µM | NCI-H522 > 100 µM | OVCAR-3 > 58.2 µM | ACHN > 47.1 µM | CCRF-CEM 6.76 µM | NCI/ADR-RES > 100 µM | A498 > 51.8 µM | BT-549 > 100 µM

N=C(N)C(/N=N\c1ccccc1)C(=N)N (stereo not given)
inactive: MCF7 25.6 µM | LOX IMVI 34 µM | SK-MEL-28 49.1 µM | COLO 205 29.8 µM | Hs-578T 48.9 µM | NCI-H226 15 µM | TK-10 46.9 µM | OVCAR-4 42.4 µM | SNB-19 53.7 µM | SF-539 14.9 µM | K562 23.7 µM | U-251 24 µM | OVCAR-8 95.5 µM | NCI-H522 36 µM | OVCAR-3 38.5 µM | ACHN 64.9 µM | CCRF-CEM 13.5 µM | NCI/ADR-RES 60.4 µM | A498 54.5 µM | BT-549 39.9 µM

CC(C)(C)c1ccc(-n2c3nc(=O)n(-c4ccccc4C(F)(F)F)c(=O)c-3cc3ccccc32)cc1
inactive: MCF7 15.6 µM | LOX IMVI 11.9 µM | SK-MEL-28 8.26 µM | COLO 205 19.1 µM | Hs-578T 21.9 µM | NCI-H226 17 µM | TK-10 51.9 µM | OVCAR-4 27.5 µM | SNB-19 31.8 µM | SF-539 23.8 µM | K562 16.9 µM | U-251 11 µM | OVCAR-8 19.6 µM | NCI-H522 16.9 µM | OVCAR-3 13.6 µM | ACHN 15.8 µM | CCRF-CEM 13.3 µM | NCI/ADR-RES 23.4 µM | A498 31.3 µM | BT-549 24 µM

CC(=O)CC(OC(C)=O)C1=CCC2C(CC1C)OC(=O)C2C (stereo not given)
inactive: MCF7 > 100 µM | LOX IMVI 88.5 µM | SK-MEL-28 > 100 µM | COLO 205 > 100 µM | Hs-578T > 100 µM | NCI-H226 > 100 µM | TK-10 > 100 µM | OVCAR-4 > 100 µM | SNB-19 > 100 µM | SF-539 > 100 µM | K562 > 100 µM | U-251 > 100 µM | OVCAR-8 > 100 µM | NCI-H522 > 100 µM | OVCAR-3 > 100 µM | ACHN > 100 µM | CCRF-CEM 64.9 µM | NCI/ADR-RES > 100 µM | A498 > 100 µM | BT-549 75 µM

COC(=O)c1ccccc1/C=C1\Cc2c(C)c3c(c(C)c2C1=O)CCC3
inactive: MCF7 > 100 µM | LOX IMVI > 100 µM | SK-MEL-28 > 100 µM | COLO 205 > 100 µM | Hs-578T 24.5 µM | NCI-H226 > 100 µM | TK-10 > 100 µM | OVCAR-4 30.1 µM | SNB-19 > 100 µM | SF-539 88.9 µM | K562 > 100 µM | U-251 37.8 µM | OVCAR-8 > 100 µM | NCI-H522 > 100 µM | OVCAR-3 > 100 µM | ACHN > 100 µM | CCRF-CEM > 100 µM | NCI/ADR-RES > 100 µM | A498 > 100 µM | BT-549 > 100 µM

COc1ccc(C(=O)N/N=C2\C(=O)c3c(C)cc(C)cc3CC2(C)C)cc1
inactive: MCF7 16.6 µM | LOX IMVI 17.7 µM | SK-MEL-28 19.7 µM | COLO 205 21.8 µM | Hs-578T 16.3 µM | NCI-H226 22.3 µM | TK-10 54.2 µM | OVCAR-4 27 µM | SNB-19 27.4 µM | SF-539 20.5 µM | K562 16.7 µM | U-251 17.1 µM | OVCAR-8 20.9 µM | NCI-H522 15.3 µM | OVCAR-3 15.6 µM | ACHN 24.1 µM | CCRF-CEM 24.3 µM | NCI/ADR-RES 22 µM | A498 19.9 µM | BT-549 18.6 µM

CC1OC(OC2C(O)COC(OC3C(C)OC(OC4C(OC(=O)[C@]56CCC(C)(C)C[C@@H]5C5=CCC7[C@@]8(C)C[C@H](O)[C@H](OC9OC(CO)C(O)C(OC%10OC(CO)C(O)C(O)C%10O)C9O)[C@@](C)(CO)[C@@H]8CC[C@@]7(C)[C@]5(C)CC6)OCC(O)C4O)C(O)C3OC3OCC(O)(CO)C3O)C2O)C(O)C(O)C1O (stereo not given in full)
inactive: MCF7 12.4 µM | LOX IMVI 8.51 µM | SK-MEL-28 6.24 µM | COLO 205 6.31 µM | Hs-578T 11.3 µM | NCI-H226 12.3 µM | TK-10 9.79 µM | OVCAR-4 7.94 µM | SNB-19 8.89 µM | SF-539 8.83 µM | K562 22.7 µM | U-251 10.4 µM | OVCAR-8 9.84 µM | NCI-H522 7.96 µM | OVCAR-3 9.64 µM | ACHN 9.68 µM | CCRF-CEM 6.14 µM | NCI/ADR-RES 7.35 µM | A498 9.62 µM | BT-549 5.19 µM

O=C1CCc2ccc(O)c(c2)Oc2ccc(cc2)C(Sc2ccccc2)CCO1 (stereo not given)
inactive: MCF7 12.1 µM | LOX IMVI 12.5 µM | SK-MEL-28 15.4 µM | COLO 205 17.3 µM | Hs-578T 14.7 µM | NCI-H226 15 µM | TK-10 16 µM | OVCAR-4 12.2 µM | SNB-19 19.7 µM | SF-539 15.8 µM | K562 15.7 µM | U-251 16 µM | OVCAR-8 18.1 µM | NCI-H522 13.2 µM | OVCAR-3 10.9 µM | ACHN 15.1 µM | CCRF-CEM 10.8 µM | NCI/ADR-RES 14.1 µM | A498 17.4 µM | BT-549 14.4 µM

N#CC1=C(C#N)/C(=C(\C#N)C(C#N)C#N)N=C1N
inactive: MCF7 45.8 µM | LOX IMVI 19.1 µM | SK-MEL-28 21.1 µM | COLO 205 26.9 µM | Hs-578T 28.2 µM | NCI-H226 30 µM | TK-10 > 32.6 µM | OVCAR-4 28.2 µM | SNB-19 51.9 µM | SF-539 22.4 µM | K562 31.5 µM | U-251 35.6 µM | OVCAR-8 52 µM | NCI-H522 13.8 µM | OVCAR-3 34.5 µM | ACHN 33.3 µM | CCRF-CEM 8.07 µM | NCI/ADR-RES 50.8 µM | A498 25.9 µM | BT-549 24.4 µM
